The values below come from article PMC9622310 (Biomolecules & Therapeutics, 2022).

For series [1] the following is noted: ref Bergan et al., 1981; cited from earlier work.
Series [2] in a line: Rat plasma protein binding of tofacitinib by equilibrium dialysis. In kind it is in vitro ADME. Particulars: pH 7.4. Background: Equilibrium dialysis compares concentrations on both sides of a semipermeable membrane.
For series [3] the following is noted: oral 20 mg/kg; for GI24 h: remaining in gastrointestinal tract at 24 h, 20 mg/kg; for Ae0-24 h: unchanged in urine for 24 h.
The conditions of series [4]: oral 20 mg/kg, male Sprague-Dawley rats; ref Lee and Kim, 2019; cited from earlier work.
The conditions of series [5]: oxidation and N-demethylation; ref Dowty et al., 2014; cited from earlier work.
Series [6] can be described thus: Tissue distribution of tofacitinib 30 min after intravenous administration. Particulars: 30 min after intravenous 10 mg/kg. It counts as in vivo, rat.
The nature of another series: in vitro. Particulars: rat, intestinal microsomes, pH 7.4, CLint.
A further series relates to 4% human serum albumin. The conditions noted are these: 1 to 100 μg/mL; ref Kim et al., 2020; cited from earlier work.
The format of series [7] is in vivo, rat. Particulars: for Ae0-24 h: unchanged in urine for 24 h; for clearance: CL; for CL renal: CLR; for Vd: Vss.
In a further series the test system is P-gp. Particulars: ref Hussar, 2014; cited from earlier work.
The conditions of series [8]: intestinal microsomes.
A further series can be described thus: in vivo. Particulars: rat, plasma, po, 20 mg/kg; for CL renal: CLR.
The conditions of series [9]: hepatic microsomes.
The subject of another series is CYP2C11. The series can be described thus: Immunoblot analysis of CYP2C11 in hepatic and intestinal microsomes of DSS rats. Set-up: species or system rat. In general terms: Immunoblotting shows a protein as a band on a membrane.
The test system of the next series is rats. Description: Induction of ulcerative colitis by 5% DSS in drinking water. It counts as in vivo, rat.
The test system of a further series is CYP3A1/2. Description: Immunoblot analysis of CYP3A1/2 in hepatic and intestinal microsomes of DSS rats. More on the design: species or system rat.
[10] abbreviates: rat, plasma, iv, 10 mg/kg, intravenous 10 mg/kg, CON rats.
[11] abbreviates: rat, plasma, iv, 10 mg/kg, intravenous 10 mg/kg, DSS rats.

Where “and” joins values, the source holds several entries; their conditions need not be identical. Equal entries are not always repeated. Where two headings read alike, the source gives them in different places.

On to `Cc1ncc([N+](=O)[O-])n1CCO` [metronidazole], for which the “Increase of plasma concentration in patients with ulcerative colitis” value in series [1] is listed as 50%.

As for `C[C@@H]1CCN(C(=O)CC#N)C[C@@H]1N(C)c1ncnc2[nH]ccc12` [tofacitinib, Tofacitinib], the fraction unbound at 24 h, 10 μg/mL is 0.606 to 0.626 in series [2] (fresh plasma from CON and DSS rats); 0.606 in series [2] (fresh plasma from CON rats); 0.626 in [2] (fresh plasma from DSS rats). Moreover, the results for the “Decrease of CLR in DSS rats compared with CON rats” value in series [3] and in series [7] (intravenous 10 mg/kg) were 64.0% and 77.6%, respectively. In addition, the “Increase of AUC in DSS rats compared with CON rats” value is 85.5% in series [3] and 92.3% in series [7] (intravenous 10 mg/kg). For the same molecule, the GI24 h is 0.124 % of dose and 0.124 ± 0.141 % of dose in [3] (CON rats); 1.10 % of dose and 1.10 ± 0.782 % of dose in [3] (DSS rats); “less than 0.484 % of the intravenous dose” in [7] (intravenous, both CON and DSS rats). Moreover, the Ae0-24 h was 4.13 ± 2.71 % of dose in series [3] (CON rats); 2.40 ± 1.26 % of dose in series [3] (DSS rats); 3.97 ± 2.93 % of dose in series [7] (intravenous 10 mg/kg, CON rats); 2.73 ± 1.89 % of dose in series [7] (intravenous 10 mg/kg, DSS rats). The F in series [4] is 29.1%. For the same molecule, the “Fraction metabolized by hepatic CYP3A4 and CYP2C19” value in series [5] is listed as “approximately 70%”. Also, the “Concentrations in stomach, small intestine and mesentery, DSS versus CON rats” value in series [6] is “significantly higher”. Moreover, the “Plasma concentration, DSS versus CON group” value in series [6] is reported as “significantly higher”. Also, the “Distribution in rat tissues” value in [6] (both groups) is on record as “widely distributed”. Besides, the microsomal CLint is 5.81 µL/min/mg in “in vitro” (CON rats) and 3.54 µL/min/mg in the series “in vitro” (DSS rats). Moreover, in the series with 4% human serum albumin, the “Concentration dependence of binding to 4% human serum albumin” value is reported as “independent of tofacitinib concentrations”. For the same molecule, in [7] (intravenous 10 mg/kg), the “Decrease of CL in DSS rats compared with CON rats” value came out at 47.7%. Besides, in series [7] (intravenous 10 mg/kg), the “Decrease of CLNR in DSS rats compared with CON rats” value came out at 45.3%. Further, the “Decrease of Vss in DSS rats compared with CON rats” value in series [7] (intravenous 10 mg/kg) is on record as 43.2%. Also, the CLNR in series [7] (intravenous 10 mg/kg, CON rats) amounted to 34.0 ± 5.54 mL/min/kg; in series [7] (intravenous 10 mg/kg, DSS rats), 18.6 ± 1.65 mL/min/kg. The “CLR′ (CLR recalculated from free fraction in plasma)” value in series [7] (intravenous, CON rats) was 5.07 mL/min/kg; in [7] (intravenous, DSS rats) it was 1.10 mL/min/kg. The “Contribution of CLR to CL” value was 8.27% in series [7] (intravenous, CON rats) and 3.55% in [7] (intravenous, DSS rats). This molecule yielded a half-life in series [7] (rat, plasma, iv, 10 mg/kg) of 31 ± 5.36 min. The AUC in [7] (rat, plasma, iv, 10 mg/kg, intravenous 10 mg/kg, CON rats (n=7)) is 4520 ng·h/mL; in [7] (rat, plasma, iv, 10 mg/kg, intravenous 10 mg/kg, DSS rats (n=6)), 8680 ng·h/mL; in “in vivo” (CON rats (n=6)), 2650 ng·h/mL; in the series “in vivo” (DSS rats (n=6)), 4920 ng·h/mL. Besides, the clearance in [7] (setting [10]) is 37.1 ± 5.68 mL/min/kg; in series [7] (setting [11]), 19.4 ± 2.26 mL/min/kg. The CL renal is 3.07 ± 1.4 mL/min/kg in series [7] (setting [10]), 0.688 ± 0.149 mL/min/kg in series [7] (setting [11]), 5.47 ± 4.05 mL/min/kg in the series “in vivo” (CON rats) and 1.97 ± 1.14 mL/min/kg in “in vivo” (DSS rats). Moreover, the mean residence time MRT in series [7] (setting [10]) was 20.3 min; in series [7] (setting [11]), 31.9 min. The figures for the Vd in [7] (setting [10]) and in [7] (setting [11]) were 0.767 ± 0.286 L/kg and 0.436 ± 0.164 L/kg, respectively. In addition, in the series on P-gp, the P-gp substrate status entry is given as “substrate of P-gp”. In addition, the “Km, DSS versus CON rats” value in [8] and in [9] was “comparable” throughout. Moreover, the “Decrease of CLint in DSS rats compared with CON rats” value in series [8] (p=0.0679) turned out to be 39.1%; in series [9], 75.5%. Moreover, the results for the Cmax in the series “in vivo” (CON rats) and in “in vivo” (DSS rats) were 2360 ± 587 ng/mL and 2460 ± 1050 ng/mL, respectively. Further, the Tmax was 19.2 min in the series “in vivo” (CON rats) and 25 min in the series “in vivo” (DSS rats).

With dextran sulfate sodium [DSS], the results for the “Decrease in protein expression of CYP2C11” value in the series with CYP2C11 (intestine of DSS rats) and in the series with CYP2C11 (liver of DSS rats) were 78.5% and 43.3%, respectively. For the same molecule, the “Decrease in colon length compared to CON rats” value in the series with rats (5% DSS (w/v) in drinking water for 10 days) came to 49.0%. The Body weight decrease in the series on rats (5% DSS (w/v) in drinking water for 10 days, DSS rats) is 1.14%. Moreover, the CLCR with rats (DSS rats) is given as 2.68 mL/min/kg. For the same molecule, the “Decrease of plasma albumin” value with rats (DSS rats versus CON rats) came out at 15.8%. Also, in the series on rats (DSS rats versus CON rats), the “Increase of urea nitrogen” value amounted to 86.4%. In addition, the “Decrease in protein expression of CYP3A1/2” value was found to be 99.3% with CYP3A1/2 (intestine of DSS rats) and 80.1% in the series with CYP3A1/2 (liver of DSS rats).

Broadly, the fraction unbound is the share of the substance not bound to proteins or other matrix. Lower therefore signals extensive binding. The microsomal CLint is the capacity of the preparation to metabolise the compound, expressed as a volume cleared per time. A higher microsomal CLint goes with rapid turnover. In general, half-life refers to the time in which the quantity being followed falls by half. A higher half-life goes with slow decline. The AUC is the area under the concentration-time curve, a measure of exposure. Low values mean less exposure, high ones more exposure. One may read the clearance as the volume of plasma or blood freed of the substance per unit of time. High values mean efficient removal, low ones inefficient removal. As usually defined, the MRT is a mean duration of stay, worked out from the concentration-time curve. By Vd is commonly meant a proportionality between amount in the body and measured concentration, not a real space. Higher therefore signals wide distribution into tissue. What is called Cmax is the highest concentration seen after dosing. A word on the Tmax: it is the time from dosing to the highest level.
